Target: T1, Tyrosine-protein phosphatase non-receptor type 1 [1-321] (Homo sapiens, UniProt P18031)
T1 construct: 1-321
T1 sequence (P18031 whole entry): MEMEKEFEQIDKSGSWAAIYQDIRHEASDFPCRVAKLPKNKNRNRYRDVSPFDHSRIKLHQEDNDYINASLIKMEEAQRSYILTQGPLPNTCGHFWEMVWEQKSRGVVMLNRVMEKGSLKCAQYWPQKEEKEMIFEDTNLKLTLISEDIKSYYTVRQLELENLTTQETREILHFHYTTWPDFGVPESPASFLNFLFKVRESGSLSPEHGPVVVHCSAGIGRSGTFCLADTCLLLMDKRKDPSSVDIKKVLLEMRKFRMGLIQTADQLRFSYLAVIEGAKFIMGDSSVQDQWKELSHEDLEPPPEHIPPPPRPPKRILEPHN
Assay: PTP1B Activity Assay
Details: pH 7.5; 37 °C
Experimental: PTP1B was diluted before the experiment to 1.2 μg/mL in Tris buffer, pH7.6 (10 mM Tris, 1.0 mM EDTA, 3.0 mM DTT, 0.01% w/v NaN3). The tested compounds were dissolved in DMSO. The enzyme reaction buffer was Tris buffer, pH 7.5 (50 mM Tris, 0.15 M NaCl, 3 mM DTT). A typical 10 μL of tested compounds was added to the enzyme solution (50 μL), and the resulting mixture was preincubated at 37°C for 30 min. The enzyme reaction was initiated by the addition of 8 mM p-NPP (40 μL).

SMILES	IC50
O=C(O)/C=C/c1ccccc1O [(2E)-3-(2-hydroxyphenyl)prop-2-enoic acid]	138 µM
O=C(O)/C=C/c1ccc(O)cc1 [p-Coumaric Acid]	168 µM
